According to US8853194B2, “Sterol derivatives and their synthesis and use” (priority 2009, dated 2014):

Columns and labels:
[1] = system: mouse hepatoma cells H22; conditions: 0.02 g/(Kg.d) i.p.
Protocol: (§1) Ascites mice S180 and H22 that had been vaccinated 7 days were sacrificed by cervical, from which ascites were obtained under sterile conditions respectively; the obtained ascites were washed twice with culture medium RPMI1640, and prepared to a 2×10^7/ml suspension in sterile physiological saline. The suspension of cell S180 was inoculated subcutaneously in the right axillas of 40 mice (0.1 ml/mouse) to produce solid tumor models; while the suspension of cell H22 was inoculated in abdominal cavities of 40 mice (0.2 ml/mouse) by conditional means under sterile conditions to produce ascites tumor models.
(§2) 90 mice were randomly divided into 9 groups of 3 types, wherein the first type group was a normal control group, the second type groups were S180 solid tumor groups including a positive (cyclophosphamide) control group, a negative control group, a low dose group and a high dose group, and the third type groups were H22 ascites groups including a positive (cyclophosphamide) control group, a negative control group, a low dose group and a high dose group. There were 10 mice in each group. The experiment was repeated for three times.
(§3) […], the negative control group was injected same volume of corn oil, and the positive control group was injected cyclophosphamide injection solution with the dose of 0.02 g/(Kg.d). The used injection volume was 0.1 ml/mouse and the injection was given as intraperitoneal injection every other day for 15 days. During the 15 days, general activities, fur, feces, etc. of the mice were daily observed. 24 hours after the last administration, mice that had been inoculated subcutaneously with S180 were sacrificed by cervical, from which tumors, thymus and spleen were taken out. After the last administration, mice that had been inoculated in abdominal cavities with H22 were conventionally bred continually, weighted and observed the survival time every day until all the mice in the negative group were dead.
24 hours after the inoculation of ascites, the weight and the amount of abdominal circumference of the mice in the groups of ascites models were measured. The drug administration and breeding were continued according to different groups, the weight and the abdominal circumference were measured daily until one day before death. The weight increase (g) and abdominal-circumference increase (cm) were calculated. The experiment started on the day of tumor inoculation and ended on the day when all the mice in the negative control group were dead; the time of deaths were recorded, and the survival extending rate was calculated. Survival Extending Rate(%)=[(mean survival days of treatment group−mean survival days of negative control group)/mean survival days of control group]×100%
(§4) After finishing the administration in all mice in the solid tumor group, the mice were sacrificed and their spleens and livers were weighed by electronic balance. The spleen index was equivalent to the spleen weight (mg) of mice in each group divided by the weight of the mice, while the liver index was equivalent to the liver weight […] divided by the weight (g) of the mice.

[2] = system: mouse sarcoma cells S180; conditions: 0.02 g/(Kg.d) i.p.
Protocol: as §1, §2, §3, §4
On the next day after drug withdrawal, the mice in the solid-tumor […] group were weighed and sacrificed by cervical, wherein the serum was collected by eye bleeding for later use in subsequent experiments. Tumor tissues were dissected and weighed by electronic balance. The tumor inhibition rate was calculated as follows. Tumor Inhibition Rate(%)=[(mean tumor weight of negative control group−mean tumor weight of treatment group)/mean tumor weight of control group]×100%

[3] = system: VEGF; conditions: positive CTX control group, OD at 450 nm
Protocol: Before taking tumors out, blood was collected by eye bleeding from mice in the four groups, i.e. the negative control group, the positive CTX control group, the high dose (32 mg/kg) group and the low dose (16 mg/kg) group.
1.1 Preparing reagents, samples and standards;
1.2 Adding the prepared samples and standards, and reacting for 90 minutes at 37° C.;
1.3 Washing the plate twice, adding biotinylated antibody working solution, and reacting for 60 minutes at 37° C.;
1.4 Washing the plate for three times, adding ABC working solution, and reacting for 30 minutes at 37° C.;
1.5 Washing the plate for five times, adding TMB color liquid, and reacting in dark for 15 minutes at 37° C.;
1.6 Adding TMB stop solution, and measuring OD value at 450 nm.

[4] = system: CAM vessels; assay: CAM assay, effect on tumor angiogenesis; assay type: in vivo, German Roman embryonated eggs; conditions: 4 ug/embryo, 72 hours incubation
Protocol: A sterile gelatin sponge, previously made into disks with diameter of 5 mm by a hole puncher, was used as sample carrier. […] There were 3 dose groups, wherein 5 μl (low dose group, with a dose volume of 2 μg/embryo), 10 μl (middle dose group, with a dose volume of 4 μg/embryo), and 20 μl (high dose group, with a dose volume of 8 μg/embryo) of the solution were added respectively into gelatin sponge slices by a quantitative liquid transfer. The sponge slices were dried in the sterile environment.
A sterilized egg was placed into a 37° C. incubator with its air chamber upward. In the 7th day, the embryo was positioned on a super-clean bench and sterilized by ethanol, and then it was drilled by a dental drill to form a little hole in the top of the embryo. Egg shell and shell membrane around the hole were carefully removed to form an opening of about 1.2 cm×1.2 cm; after determining a sample-adding site, the air chamber membrane was carefully pricked at the separation place between the chamber and the yolk by a syringe needle; through the prick hole 1-2 drops of sterilized water was injected, which made the chamber membrane and the CAM membrane be separated; after gently removing the upper layer of the chamber membrane with forceps, the CAM membrane in the lower layer was exposed.
A drug-containing carrier was placed, at the junction area of the CAM membrane and the yolk sac membrane, on a site where vessels were less, and then sealed with sterilized transparent adhesive tape to continue to incubate for 72 hours.
After the incubation, the transparent adhesive tape stopped on the top of the air chamber was gently removed by forceps; a mixture of methanol/acetone (1:1, 1-2 ml) was gently added; the room temperature was remained constant for 10 minutes. Then, the CAM membrane was carefully peeled off and placed on a glass slide for observing and taking photos. The effect of the compound on angiogenesis was assessed by counting the numbers of large, middle, small blood vessels radiated by the carrier.

O=P1(N(CCCl)CCCl)NCCCO1 (stereo not shown) [Cyclophosphamide, reference compound]
Abdominal circumference increase (cm) ([1]; H22 ascites mice): 2.30 ± 0.66^(2)(4) cm | Survival extending rate (%) ([1]; H22 ascites mice): 57.73% | Survival time (day) ([1]; H22 ascites mice): 15.3 ± 1.06^(4) day | Weight increase (g) ([1]; H22 ascites mice): 3.42 ± 1.67^(2)(4) g | Weight increase ([1]; H22 ascites mice, listed as cyclophosphamide): 3.42 g | Liver index (100 g/g) ([1]; ascites mice): 3.26 ± 0.27^(1)(4) 100 g/g | Spleen index (mg/g) ([1]; ascites mice): 2.45 ± 0.34^(1)(4) mg/g | Liver index (100 g/g) ([2]; S180 mice): 3.09 ± 0.31^(1)(4) 100 g/g | Spleen index (mg/g) ([2]; S180 mice): 2.76 ± 0.64^(1)(4) mg/g | Tumor inhibition rate (%) ([2]; S180 sarcoma mice): 62.63% | Tumor weight (g) ([2]; S180 sarcoma mice): 0.518 ± 0.231^(4) g | Weight increase (g) ([2]; S180 sarcoma mice): 4.76 ± 1.01^(1)(3) g | OD value of serum VEGF [3]: 0.2205 ± 0.0238

Cc1ccc(C(=O)Nc2ccc(S(=O)(=O)O)c3cc(S(=O)(=O)O)cc(S(=O)(=O)O)c23)cc1NC(=O)c1cccc(NC(=O)Nc2cccc(C(=O)Nc3cc(C(=O)Nc4ccc(S(=O)(=O)O)c5cc(S(=O)(=O)O)cc(S(=O)(=O)O)c45)ccc3C)c2)c1 [Suramin, reference compound]
Large vessels (number of the vessels) [4]: 3.6 ± 2.0 | Middle vessels (number of the vessels) [4]: 12.4 ± 3.8 | Small vessels (number of the vessels) [4]: 6.1 ± 3.0
